Data reported in patent US12303489B2, “Combination treatment of arthritic disease” (SYNACT PHARMA APS, priority 2019, dated 2025).

How the values were obtained:
[1] = Phase I Part I: single ascending oral dose pharmacokinetics (oral suspension); assay type: in vivo, human (healthy volunteers)
Procedure: FIG. 2: Plasma concentration following single oral dosing of test compound in healthy volunteers. […] Dose levels of test compound: 100, 200, 400, 600 or 800 mg. Consecutive plasma samples were collected and concentration in plasma determined by LCMS-MS. N=6 per dose level. Mean per group.

MC1R [2] = conditions: cited from earlier work
MC3R = conditions: induces ERK1/2-phosphorylation and Ca2+ mobilization; cited from earlier work
[3] = Phase I Part I: single ascending oral dose safety
Text: (§1) Fourteen days repeated dosing was initiated using a tablet formulation (Part III) and was completed (Part IV) using the suspension for oral administration.
The two first male groups were composed of 3 subjects receiving active and one subject placebo; the other groups consisted of 6 subjects receiving active IMP and two subjects receiving placebo. Forty-eight (48) healthy male volunteers aged 19 to 39 years and eight (8) healthy postmenopausal female volunteers, aged 47 to 60 years were included.

[4] = Phase I Part IV: 14-day repeated dose pharmacokinetics, oral suspension; assay type: in vivo, human (healthy volunteers)
Procedure: FIG. 3: Plasma concentration following repeated oral dosing of test compound in healthy volunteers. […] Dose levels of test compound 1: 50, 100, 200 mg. Consecutive plasma samples were collected following the last day of dosing (day 14) and concentration in plasma determined by LCMS-MS. N=9 per dose level. Mean+/−SD per group.

[5] = system: K/BxN serum induced arthritis in C57/BL6 mice; assay: K/BxN serum transfer arthritis, incidence of severe arthritis; assay type: in vivo; conditions: K/BxN serum i.p. days 0 and 2; 8 days study period; N=6; drug alone
Procedure: Six week-old C57/BL6 mice were purchased from Charles River and left for one week for acclimatization before starting the experiment.
Arthritis was induced with two i.p. injections of 100 μl K/BxN serum on days 0 and 2 (for details see J Immunol 2015; 194:3381-3388).
Methotrexate and Veh2 (12.5% carbonate) were administered on days 3, 5 and 7 by i.p. injection (injected volume: 200 μl).
Preparation of methotrexate formulation: A small volume of 0.1M carbonate-bicarbonate buffer pH=9.6 was used to dissolve methotrexate (Sigma Cat no: A6770). Then, PBS was used to reach the desired concentration. […] Diluted compound was divided in single-use aliquots and stored at −20° C. until use.
The development of arthritis was monitored daily from day 0 to day 8.
Mice were sacrificed on day 8 after recording the daily measurements.
Visible signs of arthritis were assessed using the scoring method as described in Am J Pathol, 2014; 184(8):2333-41 consisting on assigning a score of 0-3 per paw, reaching a maximum of 12 per mouse: • Score 0: no signs of inflammation. • Score 1: subtle inflammation, localized. • Score 2: easily identified but localized. • Score 3: evident inflammation, not localized. […]
The incidence of severe arthritis was calculated as the % of mice in each group that reached a total score of 10.

MC1R [6] = molecular target: MC1R (Homo sapiens, UniProt Q01726); conditions: WO 2007/141343; cited from earlier work
MC1R (Homo sapiens, UniProt Q01726), sequence (Q01726 whole entry, species assumed): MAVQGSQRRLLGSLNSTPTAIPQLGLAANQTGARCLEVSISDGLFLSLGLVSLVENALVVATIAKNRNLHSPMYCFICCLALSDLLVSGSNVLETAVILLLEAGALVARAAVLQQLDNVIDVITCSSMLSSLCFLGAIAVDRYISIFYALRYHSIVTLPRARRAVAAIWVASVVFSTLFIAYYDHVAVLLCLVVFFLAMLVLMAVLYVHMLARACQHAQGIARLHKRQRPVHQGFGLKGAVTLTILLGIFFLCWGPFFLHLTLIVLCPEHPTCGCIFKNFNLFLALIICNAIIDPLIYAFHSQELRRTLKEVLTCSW

[7] = Phase I Part II: comparative bioavailability tablet vs. oral suspension; assay type: in vivo, human (healthy volunteers); conditions: 200 mg as two 100 mg tablets vs. 200 mg oral suspension, three-way cross-over
[8] = Phase I Part III: 14-day repeated dose pharmacokinetics, tablets; assay type: in vivo, human (healthy volunteers); conditions: tablets 100 mg daily (Group 1)
Text: as §1
A total of 111 subjects were randomized; 104 young healthy male volunteers and eight (8) post-menopausal women.

[9] = Phase I Part IV: 14-day repeated dose safety, oral suspension
Procedure: A Part IV was added to the study that was identical to Study Part III but conducted with the oral suspension in fasting conditions.
The dose levels tested were 50 mg, 100 mg or 200 mg with matching placebo (See FIG. 3).

[10] = female post-menopausal subjects, single 400 mg oral suspension
[11] = 50, 100 or 200 mg once daily for 14 days

## CC(=O)O.N=C(N)N/N=C/C=C/c1cccn1-c1ccccc1[N+](=O)[O-] [AP1189]
[1]; [10]
  Cmax and AUCs compared to male subjects: slightly increased
  apparent clearance: 17.26 L/h
  apparent volume of distribution compared to male subjects: similar
[1]; male subjects, single oral suspension, dose range 50-800 mg, fasting
  inter-individual variability for Cmax and AUCs: < 36%
[1]; single oral dose, MAD
  exposure at the maximum administrated dose (MAD) above expected exposure level for therapeutic efficacy: more than 10 ×
MC1R [2]; induces ERK1/2-phosphorylation and Ca2+ mobilization
  activity at receptor MC1R: biased dual agonist
MC1R [2]; receptors MC1R and MC3R, hence no MC1R-induced melanogenesis
  canonical cAMP generation: does not provoke canonical cAMP generation
MC3R
  activity at receptor MC3R: biased dual agonist
[3]; continuous 24-hours 1000 HZ Holter ECG recording, single dose
  QTcF and other cardiac parameters: No AP1189 associated increases in QTcF
[3]; male subjects, single dose 400, 600 or 800 mg
  increase in aminotransferases, above the normal upper value of ALT: up to 1.6
[3]; male subjects, single dose (1 at 400 mg, 2 at 600 mg, 1 at 800 mg)
  subjects with isolated increases in aminotransferases: 4 subjects
[3]; single oral dose 15-800 mg
  severe AEs / serious AEs: No severe AEs nor serious AEs
  treatment-related changes in vital signs: No treatment-related changes in vital signs
[3]; single oral dose up to 800 mg
  maximum tolerated dose (MTD): not reached
[4]; 50 mg once daily oral suspension
  day steady state achieved: 7 days
[4]; 100 mg once daily oral suspension
  peak increase compared to cohort 1 (50 mg): approximately 2 fold
[4]; male, human, plasma, oral, 200 mg once daily, steady conditions, read-out: C Max (mean +/− SD, N = 9)
  Cmax: 893 ± 198 ng/mL
[5]
  incidence of severe arthritis (% of mice in each group that reached a total score of 10): 50%
MC1R [6]
  binding to MC1R: shown to bind the MC1R
[7]
  exposure of tablet compared to oral suspension: lower exposure with higher variability
[8]
  bioavailability within and between subjects: high and unpredicted degree of bioavailability both within and between subjects
  exposure judged on Cmax, span: from below the limit of quantification (BLQ) up to levels expected to be more than three times the exposure expected to induce therapeutic effects
[9]; [11]
  QTcF in repeated standard 12 lead safety ECG: No individual QTcF clinically significant values
  severe AEs / serious AEs: No severe AEs nor serious AEs
[9]; Cohort 3, 200 mg once daily for 14 days
  subjects treated with active with isolated increases in aminotransferases: 3 subjects
[9]; once daily for 14 days, 2 at 50 mg, 2 at 200 mg, gastrointestinal disorders
  TEAEs considered possibly related to the study treatment: 4 events
[9]; up to 200 mg once daily for 14 days
  MTD: not reached

## CN(Cc1cnc2nc(N)nc(N)c2n1)c1ccc(C(=O)N[C@@H](CCC(=O)O)C(=O)O)cc1 [methotrexate, reference compound]
[5]
  incidence of severe arthritis (% of mice in each group that reached a total score of 10): 50%
